Measured values: the CheMixHub drug solubility set

Experiment: xn = mol fraction of the nth substance listed, in the solute-free solvent

CN1CCC(N(Cc2cccs2)c2ccccc2)CC1 + CCCO + O
solubility (g/100 g solution)
Settings | 278.15 K | 283.15 K | 288.15 K | 293.15 K | 298.15 K | 303.15 K | 308.15 K | 313.15 K | 318.15 K | 323.15 K
x2 = 0.03225 | 0.166 | 0.176 | 0.187 | 0.203 | 0.221 | 0.243 | 0.267 | 0.289 | 0.318 | 0.348
x2 = 0.06974 | 0.411 | 0.434 | 0.458 | 0.492 | 0.533 | 0.581 | 0.632 | 0.682 | 0.743 | 0.808
x2 = 0.1139 | 0.734 | 0.774 | 0.815 | 0.873 | 0.943 | 1.02 | 1.11 | 1.2 | 1.3 | 1.41
x2 = 0.1666 | 1.05 | 1.11 | 1.18 | 1.26 | 1.36 | 1.48 | 1.61 | 1.73 | 1.88 | 2.04
x2 = 0.2307 | 1.32 | 1.4 | 1.49 | 1.6 | 1.73 | 1.89 | 2.06 | 2.22 | 2.41 | 2.62
x2 = 0.3103 | 1.55 | 1.66 | 1.77 | 1.91 | 2.08 | 2.26 | 2.48 | 2.69 | 2.93 | 3.18
x2 = 0.4117 | 1.77 | 1.9 | 2.04 | 2.21 | 2.4 | 2.63 | 2.87 | 3.13 | 3.45 | 3.75
x2 = 0.5454 | 1.97 | 2.13 | 2.3 | 2.5 | 2.74 | 3 | 3.31 | 3.62 | 3.96 | 4.32
x2 = 0.7297 | 2.09 | 2.27 | 2.47 | 2.7 | 2.97 | 3.26 | 3.62 | 3.98 | 4.36 | 4.77

CN1CCC(N(Cc2cccs2)c2ccccc2)CC1 + CCO + O
solubility (g/100 g solution)
Settings | 278.15 K | 283.15 K | 288.15 K | 293.15 K | 298.15 K | 303.15 K | 308.15 K | 313.15 K | 318.15 K | 323.15 K
x2 = 0.04165 | 0.102 | 0.109 | 0.117 | 0.128 | 0.141 | 0.156 | 0.171 | 0.187 | 0.206 | 0.228
x2 = 0.08908 | 0.202 | 0.215 | 0.23 | 0.25 | 0.274 | 0.301 | 0.33 | 0.358 | 0.393 | 0.431
x2 = 0.1436 | 0.339 | 0.36 | 0.385 | 0.418 | 0.457 | 0.501 | 0.546 | 0.592 | 0.646 | 0.707
x2 = 0.2068 | 0.502 | 0.533 | 0.571 | 0.62 | 0.679 | 0.743 | 0.807 | 0.874 | 0.953 | 1.04
x2 = 0.2812 | 0.667 | 0.713 | 0.764 | 0.826 | 0.904 | 0.984 | 1.07 | 1.16 | 1.26 | 1.39
x2 = 0.3698 | 0.851 | 0.906 | 0.981 | 1.07 | 1.18 | 1.29 | 1.4 | 1.51 | 1.65 | 1.8
x2 = 0.4772 | 1.02 | 1.08 | 1.18 | 1.29 | 1.42 | 1.56 | 1.69 | 1.84 | 2.01 | 2.19
x2 = 0.6101 | 1.16 | 1.24 | 1.36 | 1.5 | 1.65 | 1.81 | 1.97 | 2.15 | 2.35 | 2.56
x2 = 0.7788 | 1.22 | 1.32 | 1.47 | 1.64 | 1.81 | 2 | 2.19 | 2.4 | 2.63 | 2.87

Cc1ccc2cc(Br)ccc2n1 + CCO + O
solubility (g/100 g solution)
Settings | 278.15 K | 283.15 K | 288.15 K | 293.15 K | 298.15 K | 303.15 K | 308.15 K | 313.15 K | 318.15 K | 323.15 K
x2 = 0.04165 | 0.0289 | 0.0336 | 0.0393 | 0.0455 | 0.0528 | 0.0607 | 0.0707 | 0.0816 | 0.0939 | 0.108
x2 = 0.08908 | 0.0673 | 0.0777 | 0.0902 | 0.103 | 0.119 | 0.137 | 0.158 | 0.181 | 0.207 | 0.237
x2 = 0.1436 | 0.119 | 0.137 | 0.159 | 0.181 | 0.209 | 0.239 | 0.276 | 0.315 | 0.359 | 0.411
x2 = 0.2068 | 0.176 | 0.203 | 0.234 | 0.267 | 0.308 | 0.354 | 0.408 | 0.466 | 0.53 | 0.607
x2 = 0.2812 | 0.218 | 0.26 | 0.304 | 0.347 | 0.4 | 0.46 | 0.535 | 0.61 | 0.695 | 0.798
x2 = 0.3698 | 0.266 | 0.313 | 0.373 | 0.43 | 0.501 | 0.579 | 0.667 | 0.762 | 0.873 | 1.01
x2 = 0.4772 | 0.308 | 0.37 | 0.442 | 0.521 | 0.603 | 0.705 | 0.819 | 0.935 | 1.07 | 1.24
x2 = 0.6101 | 0.356 | 0.425 | 0.505 | 0.593 | 0.693 | 0.812 | 0.948 | 1.09 | 1.27 | 1.47
x2 = 0.7788 | 0.399 | 0.477 | 0.569 | 0.67 | 0.785 | 0.925 | 1.08 | 1.25 | 1.44 | 1.66

Nc1cccc2ccncc12 + CCO + O
solubility (g/100 g solution)
Settings | 278.15 K | 283.15 K | 288.15 K | 293.15 K | 298.15 K | 303.15 K | 308.15 K | 313.15 K | 318.15 K | 323.15 K
x2 = 0.04165 | 0.0455 | 0.0527 | 0.0604 | 0.0712 | 0.0812 | 0.0941 | 0.11 | 0.128 | 0.147 | 0.171
x2 = 0.08908 | 0.0727 | 0.084 | 0.0965 | 0.113 | 0.129 | 0.149 | 0.174 | 0.202 | 0.233 | 0.271
x2 = 0.1436 | 0.111 | 0.129 | 0.148 | 0.172 | 0.197 | 0.228 | 0.266 | 0.308 | 0.355 | 0.413
x2 = 0.2068 | 0.162 | 0.187 | 0.215 | 0.25 | 0.287 | 0.332 | 0.387 | 0.448 | 0.517 | 0.602
x2 = 0.2812 | 0.211 | 0.244 | 0.286 | 0.338 | 0.39 | 0.45 | 0.52 | 0.604 | 0.697 | 0.809
x2 = 0.3698 | 0.271 | 0.315 | 0.371 | 0.441 | 0.51 | 0.589 | 0.685 | 0.794 | 0.922 | 1.08
x2 = 0.4772 | 0.308 | 0.371 | 0.437 | 0.522 | 0.618 | 0.722 | 0.846 | 0.987 | 1.14 | 1.33
x2 = 0.6101 | 0.364 | 0.432 | 0.522 | 0.614 | 0.718 | 0.835 | 0.975 | 1.13 | 1.33 | 1.56
x2 = 0.7788 | 0.383 | 0.459 | 0.559 | 0.658 | 0.77 | 0.902 | 1.06 | 1.25 | 1.47 | 1.73

CC(=O)Oc1cccc2c1C(=O)c1c(OC(C)=O)cc(C(=O)O)cc1C2=O + CCOC(C)=O + CC(C)O
solubility (g/100 g solution)
Settings | 273.15 K | 278.15 K | 283.15 K | 288.15 K | 293.15 K | 298.15 K | 303.15 K | 308.15 K | 313.15 K
x2 = 0.07045 | 0.0064 | 0.00841 | 0.0107 | 0.014 | 0.0178 | 0.0215 | 0.0261 | 0.0309 | 0.0362
x2 = 0.1457 | 0.00881 | 0.0112 | 0.0142 | 0.0177 | 0.0216 | 0.0261 | 0.031 | 0.0367 | 0.0431
x2 = 0.2262 | 0.0102 | 0.0132 | 0.0164 | 0.0199 | 0.0246 | 0.0305 | 0.0368 | 0.0448 | 0.0539
x2 = 0.3126 | 0.0121 | 0.0158 | 0.0197 | 0.0245 | 0.0299 | 0.0359 | 0.0439 | 0.0522 | 0.062
x2 = 0.4055 | 0.0132 | 0.0175 | 0.0224 | 0.0279 | 0.0338 | 0.0406 | 0.0489 | 0.0583 | 0.069
x2 = 0.5057 | 0.0164 | 0.0205 | 0.0253 | 0.0305 | 0.0368 | 0.0435 | 0.0512 | 0.0598 | 0.0693
x2 = 0.6141 | 0.0209 | 0.026 | 0.0317 | 0.0375 | 0.0445 | 0.0521 | 0.0612 | 0.0702 | 0.0806
x2 = 0.7318 | 0.0254 | 0.0303 | 0.0368 | 0.0441 | 0.0516 | 0.06 | 0.0692 | 0.0796 | 0.0906
x2 = 0.8599 | 0.0219 | 0.0263 | 0.0318 | 0.0379 | 0.0443 | 0.0515 | 0.0599 | 0.0686 | 0.0779

CC(=O)Oc1cccc2c1C(=O)c1c(OC(C)=O)cc(C(=O)O)cc1C2=O + CCOC(C)=O + CCO
solubility (g/100 g solution)
Settings | 273.15 K | 278.15 K | 283.15 K | 288.15 K | 293.15 K | 298.15 K | 303.15 K | 308.15 K | 313.15 K
x2 = 0.05491 | 0.00668 | 0.0091 | 0.0121 | 0.016 | 0.0207 | 0.0262 | 0.0328 | 0.04 | 0.0477
x2 = 0.1156 | 0.00776 | 0.0107 | 0.0144 | 0.0188 | 0.0241 | 0.0303 | 0.0382 | 0.0464 | 0.0564
x2 = 0.1831 | 0.015 | 0.0183 | 0.022 | 0.0265 | 0.0324 | 0.0391 | 0.0465 | 0.0555 | 0.0662
x2 = 0.2585 | 0.0202 | 0.0259 | 0.0317 | 0.0381 | 0.045 | 0.0534 | 0.0632 | 0.0734 | 0.0846
x2 = 0.3434 | 0.0268 | 0.0331 | 0.0402 | 0.0487 | 0.0574 | 0.067 | 0.078 | 0.0898 | 0.103
x2 = 0.4396 | 0.033 | 0.0398 | 0.0471 | 0.0563 | 0.0659 | 0.0773 | 0.0893 | 0.103 | 0.118
x2 = 0.5496 | 0.0337 | 0.0411 | 0.0496 | 0.0593 | 0.0698 | 0.0813 | 0.0934 | 0.109 | 0.125
x2 = 0.6765 | 0.0349 | 0.0419 | 0.0506 | 0.0609 | 0.0723 | 0.0849 | 0.0975 | 0.112 | 0.127
x2 = 0.8247 | 0.0222 | 0.0276 | 0.0334 | 0.0401 | 0.048 | 0.0562 | 0.0655 | 0.0763 | 0.087
